Test results published in patent US10669272B2, “Substituted naphthyridinone compounds useful as T cell activators” (BRISTOL-MYERS SQUIBB COMPANY, priority 2018, dated 2020).
Where two headings read alike, the source gives them in different places.

Tests used:
[1] = biological target: T1, human DGKα (Homo sapiens, UniProt P23743); experiment: DGKα LIPGLO assay (extruded liposome substrate), in vitro DGK inhibition; format: biochemical; details: liposome (LIPGLO) assay; read-out: DGKa LIPGLO IC50
T1 construct: TVMV protease cleavage site (C); Hexa-His (C); made in house; host or cells: Sf9 insect cells (baculovirus, Bac-to-Bac)

[2] = biological target: T2, human DGKζ (Homo sapiens, UniProt Q13574); experiment: DGKζ LIPGLO assay (extruded liposome substrate), in vitro DGK inhibition; format: biochemical; details: liposome (LIPGLO) assay; read-out: DGKz LIPGLO IC50
T2 construct: TVMV protease cleavage site (C); Hexa-His (C); made in house; host or cells: Sf9 insect cells (baculovirus, Bac-to-Bac)

[3] = test system: OT-1 CD8+ T cells with SIINFEKL-loaded MC38 tumor cells; experiment: Murine cytotoxic T lymphocyte assay (IFN-γ, OT-1 CTL with MC38 tumor cells); format: cell-based, mouse; details: read-out: msCTL INFg IC50
In short: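 IFN-γ was quantified by AlphaLISA in supernatants after 24 h co-culture at 37° C. Effectors were OT-1 CD8+ CTLs (5-day peptide/mIL2 expansion), exposed 1 h to DGK inhibitors before mixing 1:10 with MC38 tumor cells loaded 3 h with 1 μg/mL SIINFEKL peptide.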

[4] = test system: naïve human CD8 T cells; experiment: Human CD8 T cells IFN-γ assay; format: cell-based; details: normalized to 3 μM reference compound with anti-CD3 plus anti-CD28 as 100% activation, read-out: HuCD8 INFG Normalized EC50;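 note: Naïve human CD8 T cells stimulated with plate-bound anti-CD3 and soluble anti-CD28, IFN-γ in supernatant quantified by AlphaLISA and converted to pg/mL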
[5] = test system: Human venous whole blood; experiment: Human whole blood IFN-γ assay; format: cell-based; details: human whole blood, normalized to 3 μM reference compound with anti-CD3 plus anti-CD28 as 100% activation, read-out: INFg Whole Blood Normalized Agonist EC50;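 note: blood from healthy donors exposed to compound for 1 h before stimulation with anti-CD3 and anti-CD28 at 1 µg/mL each, IFN-γ quantified in supernatant by AlphaLISA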

T2 sequence (Q13574 with tags, fused parts or gaps isoform Q13574-4): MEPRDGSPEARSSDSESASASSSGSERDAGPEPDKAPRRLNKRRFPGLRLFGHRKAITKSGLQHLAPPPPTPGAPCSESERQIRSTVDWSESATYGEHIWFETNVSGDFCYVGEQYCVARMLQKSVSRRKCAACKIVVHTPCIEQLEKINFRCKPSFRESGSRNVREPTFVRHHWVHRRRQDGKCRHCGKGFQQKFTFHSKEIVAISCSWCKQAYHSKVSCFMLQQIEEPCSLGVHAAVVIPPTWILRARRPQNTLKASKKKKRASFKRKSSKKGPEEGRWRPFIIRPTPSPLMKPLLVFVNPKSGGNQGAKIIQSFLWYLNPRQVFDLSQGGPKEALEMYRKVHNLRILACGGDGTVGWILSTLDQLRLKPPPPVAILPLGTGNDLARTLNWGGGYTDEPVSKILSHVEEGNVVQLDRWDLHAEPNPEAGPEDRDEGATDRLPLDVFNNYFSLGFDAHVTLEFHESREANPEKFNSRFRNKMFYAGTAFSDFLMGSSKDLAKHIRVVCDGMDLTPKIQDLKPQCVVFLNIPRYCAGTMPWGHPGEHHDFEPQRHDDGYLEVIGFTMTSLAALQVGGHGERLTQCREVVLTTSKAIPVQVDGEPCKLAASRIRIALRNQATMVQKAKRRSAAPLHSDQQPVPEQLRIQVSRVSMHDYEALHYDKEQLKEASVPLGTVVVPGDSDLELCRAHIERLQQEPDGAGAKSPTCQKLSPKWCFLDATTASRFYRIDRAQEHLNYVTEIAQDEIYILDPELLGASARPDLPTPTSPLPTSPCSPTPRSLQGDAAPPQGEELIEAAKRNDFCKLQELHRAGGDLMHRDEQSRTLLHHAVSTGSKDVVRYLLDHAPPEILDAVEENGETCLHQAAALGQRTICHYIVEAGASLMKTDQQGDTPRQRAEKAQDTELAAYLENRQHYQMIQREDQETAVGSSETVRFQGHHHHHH
T1 sequence (P23743 with tags, fused parts or gaps): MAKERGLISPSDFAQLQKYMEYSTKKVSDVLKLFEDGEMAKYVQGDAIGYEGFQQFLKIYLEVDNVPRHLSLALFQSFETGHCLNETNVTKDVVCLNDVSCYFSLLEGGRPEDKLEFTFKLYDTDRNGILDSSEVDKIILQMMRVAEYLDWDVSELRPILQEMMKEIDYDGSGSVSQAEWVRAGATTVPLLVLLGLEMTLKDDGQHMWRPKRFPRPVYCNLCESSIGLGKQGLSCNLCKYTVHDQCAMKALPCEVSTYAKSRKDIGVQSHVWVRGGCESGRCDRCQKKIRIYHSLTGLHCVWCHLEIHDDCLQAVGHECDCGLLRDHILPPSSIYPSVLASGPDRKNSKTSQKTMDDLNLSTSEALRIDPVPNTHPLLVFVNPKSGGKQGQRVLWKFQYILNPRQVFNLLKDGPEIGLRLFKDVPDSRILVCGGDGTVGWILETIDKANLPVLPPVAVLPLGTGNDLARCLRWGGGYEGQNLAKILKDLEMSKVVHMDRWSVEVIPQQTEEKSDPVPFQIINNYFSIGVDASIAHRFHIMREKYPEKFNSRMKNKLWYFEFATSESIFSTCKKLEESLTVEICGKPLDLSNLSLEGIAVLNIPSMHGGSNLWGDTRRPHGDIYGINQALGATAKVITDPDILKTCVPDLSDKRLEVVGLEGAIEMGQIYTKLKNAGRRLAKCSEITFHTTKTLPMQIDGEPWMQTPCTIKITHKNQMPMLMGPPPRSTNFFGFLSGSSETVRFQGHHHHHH

Row | Structure (SMILES) | IC50 [1] [µM] | IC50 [2] [µM] | IC50 ([3]; Mus musculus, MC-38) [µM] | EC50 ([4]; Homo sapiens, T-cell, 20 h) [µM] | EC50 ([5]; Homo sapiens, 24 h) [µM] | IC50 [3] [µM] | EC50 [4] [µM] | EC50 [5] [µM] | EC50 ([5]; Homo sapiens) [µM]
1 | Cn1c(=O)c(Cl)c(N2CCN(C(c3ccc(F)cc3)c3ccc(F)cc3)C(CO)C2)c2nc(C#N)ccc21 (single isomer, unassigned) [Example 101, 8-(4-(bis (4-fluorophenyl)methyl)-3-(hydroxymethyl)piperazin-1-yl)-7-chloro-5-methyl-6-oxo-5,6-dihydro-1,5-naphthyridine-2-carbonitrile] | 3.3 | 1.6 | – | – | – | 0.14 | 0.077 | 2.3 | –
2 | COc1cc(F)ccc1C(c1ccc(F)cc1)N1C[C@H](C)N(c2cc(=O)n(C)c3ccc(C#N)nc23)C[C@H]1C (single isomer, unassigned) [Example 108] | 3.4 | 0.13 | – | – | – | 0.13 | 0.033 | 0.44 | –
3 | C[C@@H]1CN(c2c(F)c(=O)n(C)c3ccc(C#N)nc23)CCN1C(c1ccc(F)cc1)c1ccc(F)cc1 [Example 30, (R)-8-(4-(bis(4-fluorophenyl)methyl)-3-methylpiperazin-1-yl)-7-fluoro-5-methyl-6-oxo-5,6-dihydro-1,5-naphthyridine-2-carbonitrile] | 0.5 | 0.43 | 0.015 | 0.43 | 1.6 | – | – | – | –
4 | COC(=O)C1CN(c2c(Cl)c(=O)n(C)c3ccc(C#N)nc23)CCN1C(c1ccc(F)cc1)c1ccc(F)cc1 (single isomer, unassigned) [Example 76, methyl 1-(bis(4-fluorophenyl)methyl)-4-(3-chloro-6-cyano-1-methyl-2-oxo-1,2-dihydro-1,5-naphthyridin-4-yl)piperazine-2-carboxylate] | 3.4 | 5.2 | – | 10 | 1.6 | 0.28 | – | – | –
5 | COC(=O)C1CN(c2cc(=O)n(C)c3ccc(C#N)nc23)CCN1C(c1ccc(F)cc1)c1ccc(F)cc1 (stereo not shown) [Example 27, Methyl 1-(bis(4-fluorophenyl)methyl)-4-(6-cyano-1-methyl-2-oxo-1,2-dihydro-1,5-naphthyridin-4-yl)piperazine-2-carboxylate] | 240 | 1.7 | 0.064 | 0.062 | – | – | – | – | 0.52
6 | COc1cc(F)ccc1C(c1ccc(F)cc1)N1C[C@H](C)N(c2cc(=O)n(C)c3ccc(C#N)nc23)C[C@H]1C (single isomer, unassigned) [Example 109] | 24 | 0.1 | – | – | – | 0.48 | 0.015 | 1.3 | –
7 | COC(=O)C1CN(C(c2ccc(F)cc2)c2ccc(F)cc2)CCN1c1c(C#N)c(=O)n(C)c2ccc(C#N)nc12 (single isomer, unassigned) [Example 116, Methyl 4-(bis(4-fluorophenyl)methyl)-1-(3,6-dicyano-1-methyl-2-oxo-1,2-dihydro-1,5-naphthyridin-4-yl)piperazine-2-carboxylate] | 9.5 | 3.6 | – | 0.16 | 3.3 | 0.56 | – | – | –
8 | Cn1c(=O)cc(N2CCN(C(c3ccc(F)cc3)c3ccc(F)cc3)C(C(C)(C)O)C2)c2nc(C#N)ccc21 (single isomer, unassigned) [Example 78, 8-(4-(bis(4-fluorophenyl)methyl)-3-(2-hydroxypropan-2-yl)piperazin-1-yl)-5-methyl-6-oxo-5,6-dihydro-1,5-naphthyridine-2-carbonitrile] | 18 | 1.9 | – | – | 8.4 | 2 | 0.21 | – | –
9 | COCC1CN(c2cc(=O)n(C)c3ccc(C#N)nc23)CCN1C(c1ccc(F)cc1)c1ccc(F)cc1 (single isomer, unassigned) [Example 92, 8-(4-(bis(4-fluorophenyl)methyl)-3-(methoxymethyl)piperazin-1-yl)-5-methyl-6-oxo-5,6-dihydro-1,5-naphthyridine-2-carbonitrile] | 96 | 5.4 | – | – | – | 0.69 | 9.7 | 9 | –
10 | CC(C)[C@@H]1CN(c2c(C#N)c(=O)n(C)c3ccc(C#N)nc23)CCN1C(c1ccc(F)cc1)c1ccc(F)cc1 [Example 169, (R)-8-(4-(bis(4-fluorophenyl)methyl)-3-isopropylpiperazin-1-yl)-5-methyl-6-oxo-5,6-dihydro-1,5-naphthyridine-2,7-dicarbonitrile] | 3.2 | 77 | 2.6 | 0.44 | 13 | – | – | – | –
11 | Cc1ccc(C(c2ccc(C)cc2)N2C[C@H](C)N(c3cc(=O)n(C)c4ccc(C#N)nc34)C[C@H]2C)cc1 [Example 301, 8-[(2S,5R)-4-[bis(4-methylphenyl)methyl]-2,5-dimethylpiperazin-1-yl]-5-methyl-6-oxo-5,6-dihydro-1,5-naphthyridine-2-carbonitrile] | 1.5 | 0.87 | 0.072 | 0.0095 | – | – | – | – | 0.52

The remaining compounds from weak to strong by IC50 [1], led by results:

Row | IC50 [1] [µM] | IC50 [2] [µM] | Structure (SMILES) | IC50 ([3]; Mus musculus, MC-38) [µM] | EC50 ([4]; Homo sapiens, T-cell, 20 h) [µM] | EC50 ([5]; Homo sapiens, 24 h) [µM] | IC50 [3] [µM] | EC50 [4] [µM] | EC50 [5] [µM] | EC50 ([5]; Homo sapiens) [µM]
12 | 29 | 1.7 | COc1cc(F)ccc1C(c1ccc(F)cc1)N1C[C@H](C)N(c2cc(=O)n(C)c3ccc(C#N)nc23)C[C@H]1C (single isomer, unassigned) [Example 119] | – | – | – | 6.3 | 0.61 | 5.1 | –
13 | 2.8 | 0.96 | C[C@@H]1CN(c2c(C#N)c(=O)n(C)c3ccc(C#N)nc23)[C@@H](C)CN1C(c1ccc(F)cc1)c1ccc(F)cc1 [Example 159, 8-((2S,5R)-4-(bis(4-fluorophenyl)methyl)-2,5-dimethylpiperazin-1-yl)-5-methyl-6-oxo-5,6-dihydro-1,5-naphthyridine-2,7-dicarbonitrile] | 0.14 | 0.035 | 1 | – | – | – | –
14 | 2.4 | 0.33 | CC[C@@H]1CN(c2c(Cl)c(=O)n(C)c3ccc(C#N)nc23)CCN1C(c1ccc(F)cc1)c1ccc(F)cc1 [Example 175, (R)-8-(4-(bis(4-fluorophenyl)methyl)-3-ethylpiperazin-1-yl)-7-chloro-5-methyl-6-oxo-5,6-dihydro-1,5-naphthyridine-2-carbonitrile] | 0.61 | 0.051 | 4.3 | – | – | – | –
15 | 1.9 | 3.1 | Cn1c(=O)c(Cl)c(N2CCN(C(c3ccc(F)cc3)c3ccc(F)cc3)C(CO)C2)c2nc(C#N)ccc21 (single isomer, unassigned) [Example 100, 8-(4-(bis (4-fluorophenyl)methyl)-3-(hydroxymethyl)piperazin-1-yl)-7-chloro-5-methyl-6-oxo-5,6-dihydro-1,5-naphthyridine-2-carbonitrile] | 0.11 | 0.089 | 1.4 | – | – | – | –
16 | 0.88 | 0.88 | CC[C@@H]1CN(c2c(C#N)c(=O)n(C)c3ccc(C#N)nc23)CCN1C(c1ccc(Cl)cc1)c1ccc(Cl)cc1 [Example 179, (R)-8-(4-(bis(4-chlorophenyl)methyl)-3-ethylpiperazin-1-yl)-5-methyl-6-oxo-5,6-dihydro-1,5-naphthyridine-2,7-dicarbonitrile] | 0.049 | 0.052 | 1 | – | – | – | –
17 | 0.6 | 0.63 | Cc1ccc(C(c2ccc(Cl)cc2)N2C[C@H](C)N(c3cc(=O)n(C)c4ccc(C#N)nc34)C[C@H]2C)cc1 (single isomer, unassigned) [Example 250] | – | – | – | 0.19 | 0.12 | 0.71 | –
